In the supplement of paper PMC11061612:

Experiments:
[1] = test system: EW-24 (Ewing's Sarcoma); assay: Bliss excess, mean over the matrix (fraction); higher = more synergy
How it was run: (§1)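 Bliss excess equals the observed combination effect minus the expected value EA + EB − EA·EB, where EA and EB are the effects of each agent alone. Combination Emax is the second-highest inhibition within the matrix. Inhibition was scaled from CellTiter-Glo 2.0 luminescence, with 0 set by vehicle wells and 1 by blank wells, after 72 hours of two-drug dosing of cells plated in 1536-well plates.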

[2] = test system: EFM-19 (Breast Carcinoma); assay: combination Emax (second highest fraction inhibited in the dose matrix, 72 h); higher = more inhibition; extreme values may be limits of the assay
How it was run: as §1

[3] = test system: TE-1 (Esophageal Squamous Cell Carcinoma); assay: as above
How it was run: as §1

[4] = test system: SCC-15 (Oral Cavity Carcinoma); assay: as above
How it was run: as §1

[5] = test system: UACC-62 (Melanoma); assay: as above
How it was run: as §1

[6] = test system: AMO-1 (Plasma Cell Myeloma); assay: as above
How it was run: as §1

[7] = test system: C-4-I (Cervical Carcinoma); assay: as above
How it was run: as §1

[8] = test system: BT-549 (Breast Carcinoma); assay: as above
How it was run: as §1

[9] = test system: TK10 (Kidney Carcinoma); assay: as above
How it was run: as §1

[10] = test system: SU8686 (Pancreatic Carcinoma); assay: as above
How it was run: as §1

[11] = test system: VA-ES-BJ (Other Solid Carcinomas); assay: as above
How it was run: as §1

[12] = test system: KMOE-2 (Acute Myeloid Leukemia); assay: as above
How it was run: as §1

[13] = test system: KYSE-450 (Esophageal Squamous Cell Carcinoma); assay: as above
How it was run: as §1

[14] = test system: ACHN (Kidney Carcinoma); assay: as above
How it was run: as §1

[15] = test system: NEC8 (Other Solid Carcinomas); assay: as above
How it was run: as §1

[16] = test system: NCI-H1915 (Non-Small Cell Lung Carcinoma); assay: as above
How it was run: as §1

[17] = test system: OVCAR-4 (Ovarian Carcinoma); assay: as above
How it was run: as §1

[18] = test system: RF-48 (B-Cell Non-Hodgkin's Lymphoma); assay: as above
How it was run: as §1

[19] = test system: KARPAS-299 (T-Cell Non-Hodgkin's Lymphoma); assay: as above
How it was run: as §1

[20] = test system: Ca9-22 (Head and Neck Carcinoma); assay: as above
How it was run: as §1

Row | Structure (SMILES) | Bliss excess [1] | combination Emax [2] | combination Emax [3] | combination Emax [4] | combination Emax [5] | combination Emax [6] | combination Emax [7] | combination Emax [8] | combination Emax [9] | combination Emax [10] | combination Emax [11] | combination Emax [12] | combination Emax [13] | combination Emax [14] | combination Emax [15] | combination Emax [16] | combination Emax [17] | combination Emax [18] | combination Emax [19] | combination Emax [20]
1 | Cc1c2c(nn1C)CSCc1cc(n(C)n1)CSc1cc(c3ccccc3c1)OCCCc1c(C(=O)O)n(C)c3c-2c(Cl)ccc13 [AZD5991] + C[C@@H]1COCCN1C2=NC(=NC(=C2)C3(CC3)[S@](=N)(=O)C)C4=C5C=CNC5=NC=C4 [AZD6738] (first compound max 1 µM, 7x7, partner max 10 µM) | -0.0078 | 0.465 | 0.747 | 0.561 | 0.939 | 1 | 1 | 0.659 | 0.522 | 0.353 | 0.686 | 0.873 | 0.55 | 0.948 | 0.978 | 0.504 | 0.713 | 0.545 | 1 | 0.93
2 | CC1(C)CCC(CN2CCN(c3ccc(C(=O)NS(=O)(=O)c4ccc(NCC5CCOCC5)c([N+](=O)[O-])c4)c(Oc4cnc5[nH]ccc5c4)c3)CC2)=C(c2ccc(Cl)cc2)C1 [Venetoclax] + C1CN(CCC1(C(=O)N[C@@H](CCO)C2=CC=C(C=C2)Cl)N)C3=NC=NC4=C3C=CN4 [Capivasertib] (first compound max 1 µM, 7x7, partner max 3 µM) | -0.0113 | 0.489 | 0.162 | 0.226 | 0.392 | 0.76 | 0.235 | 0.239 | 0.339 | 0.059 | 0.264 | 0.581 | 0.197 | 0.81 | 0.174 | 0.141 | 0.1 | 0.364 | 0.837 | 0.212
3 | Cc1c2c(nn1C)CSCc1cc(n(C)n1)CSc1cc(c3ccccc3c1)OCCCc1c(C(=O)O)n(C)c3c-2c(Cl)ccc13 [AZD5991] + C[C@@H](Nc1cc(F)cc(F)c1)c1cc(C(=O)N(C)C)cc2c(=O)cc(N3CCOCC3)oc12 [AZD8186] (first compound max 1 µM, 7x7, partner max 3 µM) | -0.0426 | 0.586 | 0.589 | 0.322 | 0.934 | 1 | 0.985 | 0.476 | 0.419 | 0.378 | 0.322 | 0.644 | 0.234 | 0.342 | 0.369 | 0.184 | 0.288 | 0.365 | 0.957 | 0.521
4 | CN(C)CCCOc1ccc(-c2ccc3ncc4c(c3c2)n(C2CCOCC2)c(=O)n4C)cn1 [AZD0156] + CCN(CCO)CCCOc1ccc2c(Nc3cc(CC(=O)Nc4cccc(F)c4)[nH]n3)ncnc2c1 [AZD2811] (first compound max 1 µM, 7x7, partner max 1 µM) | 0.0199 | 0.383 | 0.254 | 0.201 | 0.188 | 0.312 | 0.147 | 0.221 | 0.166 | 0.0439 | 0.245 | 0.21 | 0.193 | 0.135 | 0.146 | 0.299 | 0.148 | 0.305 | 0.243 | 0.127
5 | C[C@@H]1COCCN1c1cc(C2([S@](C)(=N)=O)CC2)nc(-c2ccnc3[nH]ccc23)n1 [AZD6738] + O=C(c1cc(Cc2n[nH]c(=O)c3ccccc23)ccc1F)N1CCN(C(=O)C2CC2)CC1 [Olaparib] (first compound max 10 µM, 7x7, partner max 10 µM) | -0.0177 | 0.439 | 0.319 | 0.587 | 0.509 | 0.866 | 0.875 | 0.446 | 0.471 | 0.288 | 0.64 | 0.616 | 0.608 | 0.988 | 0.764 | 0.557 | 0.664 | 0.56 | 0.98 | 0.88
6 | Cn1cnc2c(F)c(Nc3ccc(Br)cc3Cl)c(C(=O)NOCCO)cc21 [Selumetinib] + CCN(CCO)CCCOc1ccc2c(Nc3cc(CC(=O)Nc4cccc(F)c4)[nH]n3)ncnc2c1 [AZD2811] (first compound max 10 µM, 7x7, partner max 1 µM) | -0.014 | 0.219 | 0.49 | 0.36 | 0.815 | 0.481 | 0.66 | 0.3 | 0.327 | 0.142 | 0.327 | 0.999 | 0.209 | 0.366 | 0.0754 | 0.6 | 0.268 | 0.312 | 0.252 | 0.475
7 | C=CCn1c(=O)c2cnc(Nc3ccc(N4CCN(C)CC4)cc3)nc2n1-c1cccc(C(C)(C)O)n1 [AZD1775] + O=C(c1cc(Cc2n[nH]c(=O)c3ccccc23)ccc1F)N1CCN(C(=O)C2CC2)CC1 [Olaparib] (first compound max 1 µM, partner max 10 µM) | -0.0708 | 0.639 | 0.552 | 0.284 | 0.468 | 0.728 | 0.792 | 0.551 | 0.455 | 0.182 | 0.307 | 0.905 | 0.687 | 0.907 | 0.284 | 0.668 | 0.472 | 0.651 | 0.93 | 0.88
